How the values were obtained:
[1] = tested on: primary cultured human mesothelioma cells; assay: Cell survival assay (crystal violet); format: cell-based; settings: 50 and 100 μM, 3 days
Protocol: Fresh cancer tissue and adjacent normal tissue from patients undergoing curative primary resection of their tumors were collected at the time of surgery (IRB approval H8714-15319-040), and immediately snap-frozen in liquid nitrogen. These tissue samples were kept at −170° C. in a liquid nitrogen freezer until further use. Primary tissue cultures were prepared as follows: Fresh cancer tissue was obtained with consent from patients undergoing resection, cut into small pieces (1-2 mm in diameter), and then digested with Collagenase A (Roche Applied Science, Indianapolis, Ind.) at room temperature for 2 hours according to manufacture's protocol. Single cells from the digestion were spun down and the cell pellets were washed twice using RPMI 1640 supplemented with 10% fetal bovine serum, penicillin (100 IU/ml) and streptomycin (100 μg/ml). Then, the cells were resuspended in the same medium and cultured in 6-well plates at 37° C. in a humid incubator with 5% CO2 until they were ready for further treatments.
(§1) Typically, the small molecule compounds of the present invention were dissolved in DMSO at a concentration of 30 mM. The small molecule compounds were then tested under cell culture conditions at different concentrations ranging from 0, 10, 30, 50, to 100 uM. To determine cell survival after treatment, the cells were incubated with the small molecule compounds in 6-well plates for about 3 days. After removal of the cell culture medium, 1-ml of 0.5% crystal violet solution (prepared in 20% ethanol and 20% methanol) was added to stain the cells for 5 min. Then the crystal violet solution was rinsed clean with tap water. Cell survival was estimated based on the density of crystal stained plates.
Next, the effect of different small molecule compounds on primary cultured human mesothelioma cells freshly made from tissue samples was examined. The primary cultures were plated in 6-well plates as described herein and incubated with 50 and 100 μM of each compound (FN1-5, FN1-7, FN1-8, and FN3-5; stocks were dissolved in DMSO at 30 mM) for 3 days. […] (FIG. 8).

[2] = tested on: normal human muscle cells; assay: Cell survival assay (crystal violet); format: cell-based; settings: 1, 10, 30, and 50 μM, 3 days
Protocol: as §1
The cell killing effect of small molecule compounds FN1-8, FN1-7, and FN1-5 at different doses was examined in normal human muscle cells. […] Normal muscle cells were plated in 6-well plates and incubated with 1, 10, 30, and 50 μM of each compound for 3 days, in the same manner as described herein for similar other experiments. […] Both FN1-5 and FN1-8 seem to be specific in killing cancer cells.

[3] = tested on: human SOCS3 promoter in NSCLC cell line A549; assay: SOCS3 promoter-luciferase reporter assay; format: cell-based; settings: A549, 30 μM, 18-24 hours
Protocol: One day before transfection, cells (1×10^5) were plated in 12-well plates with growth medium without antibiotics. When cells reached 80-90% of confluence they were co-transfected using 0.5 μg of each promoter construct in pGL3Basic vector and 0.025 μg pRL-TK Vector (Promega; Madison, Wis.) containing Renilla Luciferase as an internal control for the transformation efficiency. Lipofectamine 2000™ (Invitrogen Life Technologies) was used to mediate transfection for about 6 hours. Then the medium was replaced with fresh medium containing various small molecule compounds at a concentration of 30 μM, and the resulting cells were cultured for an additional 18-24 hours and subjected to luciferase assay. Briefly, cells were lysed in a lysis buffer and Firefly and Renilla Luciferase activities in cells of each well, were measured using Dual-Luciferase Assay System (Promega) and an illuminometer. The measured luciferase activities were normalized to pRL-TK Vector activity and were given relative to the basal activity of empty pGL3-Basic Vector, which was set to unity. The data shown represent mean values (±S.D.). All measurements were performed in triplicate and repeated in at least three independent experiments. The human Wnt-2 promoter-luciferase construct, the human SOCS3 promoter-Luciferase construct and the human Gremlin promoter-luciferase construct were cloned and characterized in the laboratory of Dr. Jablons at the University of California, San Francisco (San Francisco, Calif.; He et al., Biochem Biophy Res Comm, 2003; and unpublished data). The 6GLI-TKO-luciferase construct (containing 6 repeats of consensus GLI DNA binding sequence) was kindly provided by Dr. Matthias Hebrok's laboratory at the University of California, San Francisco (San Francisco, Calif.).
As a third specificity test for the small molecule compounds of the present invention, the ability of these compounds to regulate the expression of genes that are not down-stream targets of the Gli activation was analyzed. SOCS3, an inhibitor and down-stream target gene of JAK/STAT pathway was chosen for this experiment. Expression of SOCS3 is not under control of Gli and/or Wnt activation. Furthermore, no GLI and TCF binding sites were found in the human SOCS3 promoter cloned in the laboratory of Dr. Jablons (University of California, San Francisco; data not shown). Thus, SOCS3 promoter-luciferase reporter activity was measured after the treatment of the NSCLC cell line A549 with small molecule compounds FN1-5, FN1-7, FN1-8, and FN1-9U.

melanoma cell line LOX = assay: Cell survival assay (crystal violet); format: cell-based, human; settings: 100 μM, 3 days
Protocol: as §1
The effect of small molecule compounds FN1-5, FN1-8, FN1-7, FN1-9U, and FN1-9S was tested using a cytotoxicity assay and the melanoma cell line LOX. LOX cells were plated in 6-well plates and incubated with 100 μM of each compound (stocks were dissolved in DMSO at 30 mM) for 3 days, as described herein. […] Live cells were stained by 0.5% crystal violet.
Cell killing was also tested using human melanoma cell line LOX and different doses of the small molecule compounds FN1-5 and FN1-8. LOX cells were plated in 6-well plates and incubated with 10, 30, and 50 μM of each compound for 3 days, as described herein.

[4] = tested on: colon cancer cell lines SW480 and HCT116; assay: Cytotoxicity and apoptosis assays; format: cell-based, human; settings: 10, 30, 50, and 100 μM; data not shown
Protocol: as §1
(§2) Apoptosis was analyzed by using an Annexin V FITC Apoptosis Detection Kit (Biosource, Camarillo, Calif.), according to the manufacturer's protocol. After treatment with different small molecule compounds at various concentrations for about 3 days, cells were harvested by trypsinization, stained and immediately analyzed by flow cytometry (FACScan; Decton Dickinson, Franklin Lake, N.J.). Early apoptotic cells with exposed phosphatidylserine but intact cell membranes will bind to Annexin V-FITC, but not propidium iodide (PI). Cells in necrotic or late apoptotic stages will be labeled with both Annexin V-FITC and PI. […]

[5] = tested on: mesothelioma cell line MS-1; assay: Cytotoxicity and apoptosis assays; format: cell-based, human; settings: 10, 30, 50, and 100 μM (FN1-9U effect at 100 μM)
Protocol: as §1, §2

H1299 and A549 cells = assay: Cytotoxicity and apoptosis assays; format: cell-based, human; settings: 10, 30, 50, and 100 μM; data not shown
Protocol: as §1, §2

Row | SMILES | cell killing effect [1] | cell killing effect in normal cells [2] | SOCS3 promoter activity [3] | cell killing effect (melanoma cell line LOX) | cell killing effect or apoptosis [4] | cell killing effect or apoptosis [5] | cell killing effect or apoptosis (H1299 and A549 cells)
1 | O=C(NCCCO)C1C(c2ccccc2)=NN(c2ccccc2)C1c1ccccc1 (stereo not shown) [FN1-7, N-(3-Hydroxypropyl)-1,3,5-triphenyl-4,5-dihydro-pyrazole-4-carboxyanide] | No significant cell killing | No noticeable cell killing effect | inactive | Some killing | – | – | –
2 | O=C(O)CCCCNC(=O)C1C(c2ccccc2)C(c2ccccc2)=NN1c1ccccc1 (stereo not shown) [FN1-9S, 5-(1,3,4-triphenyl-4,5-dihydro-pyrazole-5-carbonyl)aminopentanoic acid] | – | – | – | – | No dramatic cell killing effect or apoptosis | no cell killing effect or apoptosis | no noticeable cell killing effect or apoptosis
3 | O=C(O)CCCCNC(=O)C1C(c2ccccc2)=NN(c2ccccc2)C1c1ccccc1 (stereo not shown) [FN1-9U, 5-(1,3,5-Triphenyl-4,5-dihydro-pyrazole-4-carbonyl)aminopentanoic acid] | – | – | inactive | Some killing | No dramatic cell killing effect or apoptosis | some cell killing | no noticeable cell killing effect or apoptosis
4 | CC(C)CC1=NN(c2ccccc2)C(CC(C)C)C1C(=O)NCCCCCO (stereo not shown) [FN3-5, N-(5-Hydroxypentyl)-1-phenyl-3,5-bis(isobutyl)-4,5-dihydro-pyrazole-4-carboxyamide] | No significant cell killing | – | – | – | – | – | –
